Results: ChEMBL document CHEMBL5335779, “The research progress of SARS-CoV-2 main protease inhibitors from 2020 to 2022” (Eur J Med Chem, 2023)
Counter-ions that a name gives are not always drawn.

Key:
[1] = biological target: T1, Replicase polyprotein 1ab (Severe acute respiratory syndrome coronavirus 2, UniProt P0DTD1); assay: Inhibition of full length GST-tagged SARS-CoV-2 Main protease expressed in Escherichia coli
[2] = biological target: T1, Replicase polyprotein 1ab; assay: Inhibition of C-terminal GST-tagged SARS-CoV-2 Main protease by using MCA-AVLQSGFR(Dnp)-Lys-NH2 as fluorogenic substrate incubated for 15 mins followed by substrate addition by spectrophotometric analysis
SARS-CoV-2 [3] = assay: Antiviral activity against SARS-CoV-2 USA-WA1/2020 infected in Vero E6 cells assessed as reduction in viral replication incubated for 3 days by viral plaque assay; type: functional, organism-based; settings: Severe acute respiratory syndrome coronavirus 2, USA-WA1/2020, Vero C1008, 72 h
[4] = biological target: T1, Replicase polyprotein 1ab; assay: Inhibition of His-tagged SARS-CoV-2 Main protease BetaCoV/Wuhan/WIV04/2019 expressed in Escherichia coli BL21 (DE3) using Dabcyl-KTSAVLQ/SGFRKME(Edan) as substrate followed by compound addition by FRET assay
[5] = biological target: T1, Replicase polyprotein 1ab; assay: Inhibition of N-terminal His6-tagged recombinant full length SARS-CoV-2 3CLpro expressed in Escherichia coli BL21(DE3) using (KTSAVLQSGFRKME) as fluorogenic substrate preincubated with compound for 10 mins followed by substrate addition by FRET assay
[6] = biological target: T1, Replicase polyprotein 1ab; assay: Inhibition of N-terminal GST-tagged SARS-CoV-2 Main protease expressed in Escherichia coli BL21 (DE3) using DABCYL-KTSAVLQSGFRKME-EDANS as fluorogenic substrate preincubated for 10 mins followed by compound addition and measured after 1 hr by FRET assay
[7] = Clearance in Sprague-Dawley rat at 20 mg/kg, ip by LC-MS/MS analysis; type: ADME, organism-based; settings: in vivo
[8] = Oral bioavailability in Sprague-Dawley rat at 20 mg/kg by LC-MS/MS analysis; type: ADME, organism-based; settings: in vivo
[9] = Half life in Sprague-Dawley rat at 20 mg/kg, ip by LC-MS/MS analysis; type: ADME, organism-based; settings: in vivo
[10] = biological target: T1, Replicase polyprotein 1ab; assay: Inhibition of GST-tagged SARS-CoV-2 Main protease expressed in Escherichia coli BL21 using Dabcyl-Val-Asn-Ser-Thr-Leu-Gln-Ser-Gly-Leu-Arg-Lys-EDANS as fluorogenic substrate preincubated for 10 mins followed by substrate addition and measured after 1 hrs by FRET assay
[11] = biological target: T1, Replicase polyprotein 1ab
[12] = Binding affinity to MERS-CoV MPro assessed as inhibition constant; parameters: species or system Middle East respiratory syndrome-related coronavirus
[13] = system: Middle East respiratory syndrome-related coronavirus; assay: Antiviral activity against MERS-CoV infected in Vero E6 cells assessed as reduction in viral replication measured after 48 hrs by qRT-PCR assay; type: functional, organism-based; settings: Vero C1008, 48 h
SARS-CoV-2 [14] = type: functional, organism-based; settings: Severe acute respiratory syndrome coronavirus 2, Vero C1008
SARS-CoV-2 [15] = type: functional, organism-based; settings: Severe acute respiratory syndrome coronavirus 2, Vero C1008, 64 h
SARS-CoV-2 [16] = assay: Antiviral activity against SARS-CoV-2 WA1 infected in human A549-hACE2-TMPRSS2 cells assessed as reduction in viral replication; type: functional, organism-based; settings: Severe acute respiratory syndrome coronavirus 2, WA1, A549-hACE2-TMPRSS2
[17] = biological target: T1, Replicase polyprotein 1ab; assay: Inhibition of C-terminal SARS-CoV-2 Main protease expressed in Escherichia coli using ALNDFSNSGSDVLYQPPQTSITSAVLQ/SGFRKMAFPS-NH2 as substrate preincubated for 5 mins followed by compound addition and measured after 20 mins by FRET analysis
[18] = biological target: T1, Replicase polyprotein 1ab; assay: Binding affinity to SARS-CoV-2 Main protease expressed in Escherichia coli BL21 (DE3) assessed as inhibition constant
[19] = biological target: T1, Replicase polyprotein 1ab; assay: Inhibition of N-terminal 6His-tagges SARS-CoV-2 PLpro Wuhan (1524 to 1883 residues) expressed in Escherichia coli BL21(DE3) using Arg-Leu-Arg-Gly-Gly-AMC as substrate preincubated for 5 mins followed by substrate addition measured after 6 mins by fluorescence based assay
[20] = biological target: T1, Replicase polyprotein 1ab; assay: Inhibition of N-terminal 6his/TEV-fused GST tagged full length SARS-CoV-2 Main protease expressed in Escherichia coli BL21 (DE3) by chromatography method
SARS-CoV-2 [21] = assay: Antiviral activity against SARS-CoV-2 infected in Vero E6 cells assessed as reduction in viral replication measured after 48 hrs by qRT-PCR assay; type: functional, organism-based; settings: Severe acute respiratory syndrome coronavirus 2, Vero C1008, 48 h
[22] = Clearance in CD1 mouse at 5 mg/kg, ip; type: ADME, organism-based; settings: in vivo

**Q.** With CC(C)C[C@H](NC(=O)[C@@H](NC(=O)c1ccc(Cl)cc1)C(C)C)C(=O)N[C@H](C=O)C[C@@H]1CCCNC1=O as the compound, how does the IC50 [1] read?
**A.** The IC50 was 140 nM.

**Q.** For Nc1ccc2cc3ccc(N)cc3nc2c1 [PROFLAVINE SULFATE], which IC50 [2] is on record?
**A.** Its IC50 is 2.07 µM.

**Q.** Which EC50 (SARS-CoV-2 [3]) does the source give for O=C(N[C@@H](CC1CC1)C(=O)N[C@@H](C[C@@H]1CCNC1=O)C(O)S(=O)(=O)O)OCc1cccc(F)c1 (some centres undefined) here?
**A.** Its EC50 is 570 nM.

**Q.** What about the IC50 [4] of the same compound?
**A.** Its IC50 is 70 nM.

**Q.** For O=C(N[C@@H](CC1CC1)C(=O)N[C@@H](C[C@@H]1CCNC1=O)C(O)S(=O)(=O)O)OCCc1cccc(Cl)c1 (some centres undefined), which EC50 (SARS-CoV-2 [3]) is on record?
**A.** Its EC50 is 700 nM.

**Q.** For COC(=O)CCC(CC(=O)[C@H](CC(=O)OC)NC(=O)OCc1ccccc1)C(=O)NC(C(=O)NC(CC(=O)OC)C(=O)CF)C(C)C (some centres undefined), which IC50 [5] is on record?
**A.** Its IC50 is 6.81 µM.

**Q.** For C=CS(=O)(=O)N(c1ccc(C(C)(C)C)cc1)C(C(=O)NC1CCCCC1)c1cccnc1 (centres undefined), which IC50 [6] is on record?
**A.** Its IC50 is 420 nM.

**Q.** Which IC50 [1] does the source give for O=C[C@H](C[C@@H]1CCNC1=O)NC(=O)[C@H](Cc1ccccc1)NC(=O)c1cc2ccccc2[nH]1 here?
**A.** The IC50 was 30 nM.

**Q.** Which CL/F [7] does the source give for CC1(C)[C@@H]2[C@@H](C(=O)N[C@H](C=O)C[C@@H]3CCNC3=O)N(C(=O)COc3ccc(OC(F)(F)F)cc3)C[C@@H]21 here?
**A.** Its CL/F is 22.7 mL/min/kg.

**Q.** What about the bioavailability [8] of the same compound?
**A.** Its bioavailability is 78%.

**Q.** And the half-life [9]?
**A.** The half-life was 272 min.

**Q.** Which IC50 [10] does the source give for COc1cccc(-n2[se]c3ccccc3c2=O)c1 here?
**A.** Its IC50 is 4.08 µM.

**Q.** With NC1CC1c1ccccc1 (centres undefined) as the compound, how does the IC50 [11] read?
**A.** Its IC50 is 8.64 µM.

**Q.** Which Ki [12] does the source give for O=C(NCc1cccs1)[C@@H]1CN(C(=O)CCl)CCN1c1ccc(Cl)c(Cl)c1 here?
**A.** The Ki was 180 nM.

**Q.** And the EC50 [13]?
**A.** Its EC50 is 2640 nM.

**Q.** For Cn1sc(=O)n(Cc2ccccc2)c1=O, which IC50 (SARS-CoV-2 [14]) is on record?
**A.** Its IC50 is 670 nM.

**Q.** For C[C@H](NC(=O)[C@@H](c1cccnc1)N(C(=O)C(Cl)Cl)c1ccc(-c2ccccc2)cc1)c1ccccc1, which EC50 (SARS-CoV-2 [15]) is on record?
**A.** Its EC50 is 900 nM.

**Q.** What about the EC50 (SARS-CoV-2 [16]) of the same compound?
**A.** The EC50 was 2050 nM.

**Q.** For CC1(C)[C@H](C(=O)OCc2ccc([N+](=O)[O-])cc2)C2C(=O)C(Br)(Br)[C@H]2[S+]1[O-] (some centres undefined), which IC50 [17] is on record?
**A.** Its IC50 is 500 nM.

**Q.** Which Ki [18] does the source give for Cc1c(Cl)cc(N2CCN(C(=O)c3cc(=O)[nH]c(=O)[nH]3)CC2)cc1Cl here?
**A.** The Ki was 1400 nM.

**Q.** For CC1(C)[C@H](C(=O)OCc2ccccc2)C2C(=O)C(Br)(Br)[C@H]2S1(=O)=O (some centres undefined), which IC50 [17] is on record?
**A.** Its IC50 is 700 nM.

**Q.** With CCOC(=O)[C@@H]1O[C@H]1C(=O)N(CCC(N)=O)NC(=O)[C@H](Cc1ccccc1)NC(=O)[C@H](CC(C)C)NC(=O)OCc1ccccc1 as the compound, how does the IC50 [19] read?
**A.** The IC50 was 960 nM.

**Q.** With C[C@H](NC(=O)[C@@H](c1cccnc1)N(C(=O)C(Br)(Br)Br)c1ccc(-c2ccccc2)cc1)c1ccccc1 as the compound, how does the EC50 (SARS-CoV-2 [15]) read?
**A.** Its EC50 is 580 nM.

**Q.** And the EC50 (SARS-CoV-2 [16])?
**A.** The EC50 was 2150 nM.

**Q.** With PHENYLMERCURIC ACETATE as the compound, how does the IC50 [20] read?
**A.** The IC50 was 400 nM.

**Q.** For O=c1sn(-c2cccc3ccccc23)c(=O)n1Cc1ccccc1 [TIDEGLUSIB], which IC50 (SARS-CoV-2 [14]) is on record?
**A.** The IC50 was 670 nM.

**Q.** For CC(C)C[C@H](NC(=O)[C@@H](NC(=O)[C@H](C)NC(=O)C1CCCC1)C(C)C)C(=O)N[C@H](/C=C/C(=O)OCc1ccccc1)C[C@@H]1CCNC1=O, which EC50 (SARS-CoV-2 [21]) is on record?
**A.** The EC50 was 16.8 µM.

**Q.** For C[n+]1c2cc(N)ccc2cc2ccc(N)cc21 [EUFLAVINE], which IC50 [2] is on record?
**A.** Its IC50 is 5.6 µM.

**Q.** Which CL/F [22] does the source give for O=C[C@H](C[C@@H]1CCNC1=O)NC(=O)[C@H](CC1CCCCC1)NC(=O)c1cc2ccccc2[nH]1 here?
**A.** Its CL/F is 17.4 mL/min/kg.
